Data published in patent publication US6602516B1, “Antibiotic/medicated gutta percha point” (priority 2000, dated 2003).

Key:
Lactobacillus = experiment: Naval Dental School antibacterial study of iodoform/gutta percha (FIG. 1); format: cell-based
Description: (§1) However, it is not as effective against an oral salivary leakage contamination as determined by the previous leakage and bacterial investigations.
(§2) FIG. 1 is a table illustrating the results from a study at Naval Dental School, Bethesda, Md., the iodoform/gutta percha disclosed in U.S. Pat. No. 5,648,403, issued Jul. 15, 1997.

Streptococcus mutans = experiment: as above; format: cell-based; conditions: tested aerobe
Description: as §1, §2

Staphylococcus aureus = experiment: as above; format: cell-based; conditions: tested aerobe
Description: as §1, §2

Escherchi coli = experiment: as above; format: cell-based; conditions: tested aerobe
Description: as §1, §2

Prevotella intermedius = experiment: as above; format: cell-based
Description: as §1, §2

Actinomyces = experiment: as above; format: cell-based
Description: as §1, §2

Enterococci faecium = experiment: as above; format: cell-based; conditions: facultative anaerobe
Description: as §1, §2

Streptococcus sanguis = experiment: as above; format: cell-based; conditions: tested aerobe
Description: as §1, §2

patients = conditions: more than 1,000 patients; cited from earlier work

Row | SMILES | effectiveness against Lactobacillus (Lactobacillus) | effectiveness against Streptococcus mutans (Streptococcus mutans) | effectiveness against Staphylococcus aureus (Staphylococcus aureus) | effectiveness against Escherchi coli (Escherchi coli) | effectiveness against Prevotella intermedius (Prevotella intermedius) | effectiveness against Actinomyces (Actinomyces) | effectiveness against Enterococci faecium (Enterococci faecium) | effectiveness against Streptococcus sanguis (Streptococcus sanguis) | allergic reactions (patients)
1 | IC(I)I [Iodoform, Triiodomethane (Iodoform)] | ineffective | ineffective | ineffective | ineffective | ineffective | ineffective | ineffective | ineffective | –
2 | CN(C)[C@@H]1C(O)=C(C(N)=O)C(=O)[C@@]2(O)C(O)=C3C(=O)c4c(O)cccc4[C@@](C)(O)[C@H]3C[C@@H]12 [tetracycline] | – | – | – | – | – | – | – | – | no allergic reactions
